Molecules are shown by their SMILES. “And” between values parts separate entries of the source, which are not always exact repeats. Equal entries are not always repeated. Structures can show the parent of a compound that is named as a salt.

T1 sequence (P00533 with tags, fused parts or gaps DEL746-750/T790M limits assumed): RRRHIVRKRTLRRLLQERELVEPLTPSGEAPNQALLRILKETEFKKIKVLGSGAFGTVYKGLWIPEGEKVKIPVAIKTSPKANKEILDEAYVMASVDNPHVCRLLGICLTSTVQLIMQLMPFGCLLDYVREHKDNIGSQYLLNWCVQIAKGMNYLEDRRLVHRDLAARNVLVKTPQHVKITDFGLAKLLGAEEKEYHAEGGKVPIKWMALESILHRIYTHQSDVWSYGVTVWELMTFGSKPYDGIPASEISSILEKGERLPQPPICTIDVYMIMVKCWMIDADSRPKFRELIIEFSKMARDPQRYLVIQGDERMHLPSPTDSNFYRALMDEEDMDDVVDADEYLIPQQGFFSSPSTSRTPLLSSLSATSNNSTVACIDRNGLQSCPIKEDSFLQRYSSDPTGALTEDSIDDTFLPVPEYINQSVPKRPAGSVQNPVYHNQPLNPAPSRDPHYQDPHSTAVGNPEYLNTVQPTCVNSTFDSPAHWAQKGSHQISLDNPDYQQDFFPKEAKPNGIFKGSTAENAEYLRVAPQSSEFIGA

The assay addresses T1, EGFR del746-750 T790M (Homo sapiens, UniProt P00533, DEL746-750/T790M).
T1 construct: purchased Carna Biosciences 08-528
Kind of assay: EGFR del746-750 T790M biochemical assay (Caliper mobility shift). To be noted: 5 μM ATP, 30 min, room temperature; apparent Ki (Morrison) converted by Cheng-Prusoff, Km of ATP 2.1 μM; read-out: EGFR(T790M/d746-750) Ki.
Consider `CC(n1cc(C(=O)NC2CCOCC2)c2cnc(Nc3ccnc(-c4cnn(S(=O)(=O)C5CC5)c4)n3)cc21)C(F)(F)F` (centres unmarked) [Example 635, 6-(2-(1-(Cyclopropylsulfonyl)-1H-pyrazol-4-yl)pyrimidin-4-ylamino)-N-(tetrahydro-2H-pyran-4-yl)-1-(1,1,1-trifluoropropan-2-yl)-1H-pyrrolo[3,2-c]pyridine-3-carboxamide], for which the Ki was found to be 4.53 nM.
Consider `Cc1nc2cnc(Nc3ccnc(-c4cnc(N)s4)n3)cc2n1C(C)C` [Example 614, [2-(2-Aminothiazol-5-yl)pyrimidin-4-yl]-(1-isopropyl-2-methyl-1H-imidazo[4,5-c]pyridin-6-yl)amine], for which the Ki turned out to be 3.34 nM.
Regarding `Cc1nc2cnc(Nc3ccnc(N4CCC(OC(F)F)CC4)n3)cc2n1C(C)C` [Example 549, [2-(4-Difluoromethoxypiperidin-1-yl)pyrimidin-4-yl]-(1-isopropyl-2-methyl-1H-imidazo[4,5-c]pyridin-6-yl)amine], the Ki was found to be 143 nM.
Take `CCC(C)n1cc(C(=O)NC2CCOCC2)c2cnc(Nc3ccnc(N4CCC(C)(O)CC4)n3)cc21` (racemic) [Example 638, 1-(sec-butyl)-6-((2-(4-hydroxy-4-methylpiperidin-1-yl)pyrimidin-4-yl)amino)-N-(tetrahydro-2H-pyran-4-yl)-1H-pyrrolo[3,2-c]pyridine-3-carboxamide]: the Ki worked out at 14.9 nM.
Regarding `CC(C)n1cnc2cnc(Nc3ccnc(N4CCc5[nH]ncc5C4)n3)cc21` [Example 12, (1-Isopropyl-1H-imidazo[4,5-c]pyridin-6-yl)-[2-(1,4,6,7-tetrahydropyrazolo[4,3-c]pyridin-5-yl)pyrimidin-4-yl]amine], the Ki was 19.2 nM.
As to `Cc1nc2cnc(Nc3ccnc(N4CC[C@H](O)[C@H](F)C4)n3)cc2n1C(C)C` (racemic) [Example 505, (±)-3-Fluoro-1-(4-((1-isopropyl-2-methyl-1H-imidazo [4,5-c]pyridin-6-yl)amino)pyrimidin-2-yl)piperidin-4-ol], the Ki stood at 42.8 nM.
As for `CNc1nc(C)c(-c2nccc(Nc3cc4c(cn3)nc(C)n4C(C)C)n2)s1` [Example 611, (1-Isopropyl-2-methyl-1H-imidazo[4,5-c]pyridin-6-yl)-[2-(4-methyl-2-methylaminothiazol-5-yl)pyrimidin-4-yl]amine], the Ki is 0.773 nM.
As for `CC(n1cc(C(=O)NC2CCOCC2)c2cnc(Nc3ccnc(N4CC[C@@H](O)[C@@H](F)C4)n3)cc21)C(F)(F)F` (single isomer, unassigned) [Example 640], the Ki was determined as 15.3 nM.
With `CCC(C)n1cc(C(=O)N[C@H]2CCOC[C@H]2F)c2cnc(Nc3ccnc(N4CC[C@@H](O)[C@@H](F)C4)n3)cc21` (mixture of isomers) [Example 637, 1-(sec-butyl)-6-((2-((3S,4R)-3-fluoro-4-hydroxypiperidin-1-yl)pyrimidin-4-yl)amino)-N-((3SR, 4SR)-3-fluorotetrahydro-2H-pyran-4-yl)-1H-pyrrolo[3,2-c]pyridine-3-carboxamide], the Ki stood at 4.01 nM.
The same measure for `CO[C@H]1CCN(c2nccc(Nc3cc4c(cn3)c(C(=O)NC3CCOCC3)cn4C(C)C)n2)C[C@H]1F` [Example 381, 6-((2-((3R,4S)-3-fluoro-4-methoxypiperidin-1-yl)pyrimidin-4-yl)amino)-1-isopropyl-N-(tetrahydro-2H-pyran-4-yl)-1H-pyrrolo [3,2-c]pyridine-3-carboxamide]: 9.29 nM; for `CC(C)n1cc(C(=O)NC2CCOCC2)c2cnc(Nc3ccnc(NCC(C)(C)S(C)(=O)=O)n3)cc21` [Example 664]: 5.68 nM; for `C[C@H](n1c([C@@H](C)O)nc2cnc(Nc3ccnc(N4CCC(S(C)(=O)=O)CC4)n3)cc21)C(F)(F)F` [Example 662]: 68.4 nM.
The same measure for `Cc1nc2cnc(Nc3ccnc(-c4cnc(N(C)C)s4)n3)cc2n1C(C)C` [Example 317, [2-(2-Dimethylaminothiazol-5-yl)pyrimidin-4-yl]-(1-isopropyl-2-methyl-1H-imidazo[4,5-c]pyridin-6-yl)amine]: 2.97 nM; for `Cc1nc2cnc(Nc3ccnc(N4CCC(O)C(C)(C)C4)n3)cc2n1C(C)C` (centres unmarked) [Example 427, 1-(4-((1-isopropyl-2-methyl-1H-imidazo[4,5-c]pyridin-6-yl)amino)pyrimidin-2-yl)-3,3-dimethylpiperidin-4-ol]: 119 nM; for `CC(C)n1c(CO)nc2cnc(Nc3ccnc(N4C[C@@H](F)[C@@H](O)C(C)(C)C4)n3)cc21` [Example 650]: 92 nM and 20 nM.
On to `CC(C)n1c(CO)nc2cnc(Nc3ccnc(-c4cnc(N)s4)n3)cc21` [Example 615, {6-[2-(2-Aminothiazol-5-yl)pyrimidin-4-ylamino]-1-isopropyl-1H-imidazo[4,5-c]pyridin-2-yl}methanol], for which the Ki stood at 3.38 nM.
Consider `Cc1nc2cnc(Nc3ccnc(N4CC[C@@H](F)C4)n3)cc2n1C(C)C` [Example 593, [2-((R)-3-Fluoropyrrolidin-1-yl)pyrimidin-4-yl]-(1-isopropyl-2-methyl-1H-imidazo[4,5-c]pyridin-6-yl)amine], for which the Ki was found to be 118 nM.
For `CO[C@H]1CCN(c2nccc(Nc3cc4c(cn3)nc(C)n4C(C)C)n2)C[C@H]1F` (racemic) [Example 608, [2-((3RS,4SR)-3-Fluoro-4-methoxypiperidin-1-yl)pyrimidin-4-yl]-(1-isopropyl-2-methyl-1H-imidazo[4,5-c]pyridin-6-yl)amine], the Ki was determined as 48.3 nM.
On to `CC(C)n1cnc2cnc(Nc3ccnc(N4CCC5(CCCO5)CC4)n3)cc21` [Example 141, (1-Isopropyl-1H-imidazo[4,5-c]pyridin-6-yl)-[2-(1-oxa-8-azaspiro[4.5]dec-8-yl)pyrimidin-4-yl]amine formate salt], for which the Ki was determined as 55.5 nM.
As for `CO[C@H]1CCN(c2nccc(Nc3cc4c(cn3)nc(C)n4C(C)C)n2)C[C@@H]1F` (racemic) [Example 525, (±)-[2-((trans)-3-Fluoro-4-methoxypiperidin-1-yl)pyrimidin-4-yl]-(1-isopropyl-2-methyl-1H-imidazo[4,5-c]pyridin-6-yl)amine], the figure is 222 nM; as for `Cc1nc2cnc(Nc3ccnc(N4CCC(C)(O)CC4)n3)cc2n1C(C)C` [Example 682], 135 nM.
With `CC(C)n1c(CO)nc2cnc(Nc3ccnc(N4CC[C@H](O)[C@@](C)(F)C4)n3)cc21` [Example 702], the Ki was 239 nM.
In the case of `CC(C)n1c(CO)nc2cnc(Nc3ccnc(N4CCC(O)(C(F)(F)F)CC4)n3)cc21` [Example 669], the Ki was 234 nM.
The same measure for `Cc1nc2cnc(Nc3ccnc(N4CC[C@@](C)(O)[C@H](F)C4)n3)cc2n1C(C)C` [Example 674]: 73 nM; for `Cc1nc2cnc(Nc3ccnc(N4CCC5(CCO5)CC4)n3)cc2n1C(C)C` [Example 495, N-(2-(1-Oxa-7-azaspiro[3.5]nonan-7-yl)pyrimidin-4-yl)-1-isopropyl-2-methyl-1H-imidazo[4,5-c]pyridin-6-amine]: 71.7 nM; for `CC(C)n1c(CO)nc2cnc(Nc3ccnc(N4CCC(C)(O)CC4)n3)cc21` [Example 418, 1-(4-((2-(hydroxymethyl)-1-isopropyl-1H-imidazo[4,5-c]pyridin-6-yl)amino)pyrimidin-2-yl)-4-methylpiperidin-4-ol]: 169 nM.

Values taken from US9890152B2 (Genentech, Inc., priority 2012, dated 2018).
